Data as given in PubChem BioAssay AID2060489 (Molecular Pharmacology Branch, DTP, NCI, 2025).

Test system: 922993-354-T-J3-PDC complex spheroids, viability
Assay: Anticancer human tumor 922993-354-T-J3-PDC patient-derived endometrial carcinoma cell line growth inhibition [GQUAD]
Settings: for IC50: curve of first compound; for viability, T/C: stronger effect = lower value
How it was run: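 Multi-cell-type spheroids of tumor cells with HUVEC and mesenchymal stem cells, treated with drug combinations. Concentrations descend in half-log steps from near clinical Cmax, or from 10 microM where Cmax is unknown; viability read-out.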

[1] = second compound 0.0316 µM, first compound 0.0316 µM
[2] = second compound 0.0316 µM, first compound 0.1 µM
[3] = second compound 0.0316 µM, first compound 0.316 µM
[4] = second compound 0.0316 µM, first compound 1 µM
[5] = second compound 0.0316 µM, first compound 3.16 µM
[6] = second compound 0.0316 µM, first compound 10 µM
[7] = second compound 0.1 µM, first compound 0.0316 µM
[8] = second compound 0.1 µM, first compound 0.1 µM
[9] = second compound 0.1 µM, first compound 0.316 µM
[10] = second compound 0.1 µM, first compound 1 µM
[11] = second compound 0.1 µM, first compound 3.16 µM
[12] = second compound 0.1 µM, first compound 10 µM
[13] = second compound 0.316 µM, first compound 0.0316 µM
[14] = second compound 0.316 µM, first compound 0.1 µM
[15] = second compound 0.316 µM, first compound 0.316 µM
[16] = second compound 0.316 µM, first compound 1 µM
[17] = second compound 0.316 µM, first compound 3.16 µM
[18] = second compound 0.316 µM, first compound 10 µM
[19] = second compound 1 µM, first compound 0.0316 µM
[20] = second compound 1 µM, first compound 0.1 µM
[21] = second compound 1 µM, first compound 0.316 µM
[22] = second compound 1 µM, first compound 1 µM
[23] = second compound 1 µM, first compound 3.16 µM
[24] = second compound 1 µM, first compound 10 µM
[25] = second compound 3.16 µM, first compound 0.0316 µM
[26] = second compound 3.16 µM, first compound 0.1 µM
[27] = second compound 3.16 µM, first compound 0.316 µM
[28] = second compound 3.16 µM, first compound 1 µM
[29] = second compound 3.16 µM, first compound 3.16 µM
[30] = second compound 3.16 µM, first compound 10 µM
[31] = second compound 10 µM, first compound 0.0316 µM
[32] = second compound 10 µM, first compound 0.1 µM
[33] = second compound 10 µM, first compound 0.316 µM
[34] = second compound 10 µM, first compound 1 µM
[35] = second compound 10 µM, first compound 3.16 µM
[36] = second compound 10 µM, first compound 10 µM
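Also: spheroids exposed to compounds for seven days.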
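For viability, T/C in this document: 100% = DMSO vehicle control viability.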

CC1COCCN1c1cc(C2(O)CC3CCC(C2)O3)c2cnn(-c3ccn[nH]3)c2n1 (centres undefined) + Cc1[nH]c2ccc(F)cc2c1-c1nc2c3cccnc3c3ncccc3c2[nH]1
IC50 (second compound 0.0316 µM): 332 nM | IC50 (second compound 0.1 µM): 519 nM | IC50 (second compound 0.316 µM): 655 nM | IC50 (second compound 1 µM): 355 nM | IC50 (second compound 3.16 µM): 622 nM | IC50 (second compound 10 µM): 435 nM | viability, T/C [1]: 87.8% | viability, T/C [2]: 67.6% | viability, T/C [3]: 50.8% | viability, T/C [4]: 37.5% | viability, T/C [5]: 19.9% | viability, T/C [6]: 15.1% | viability, T/C [7]: 85.7% | viability, T/C [8]: 84.5% | viability, T/C [9]: 62.2% | viability, T/C [10]: 33.3% | viability, T/C [11]: 21.2% | viability, T/C [12]: 18.5% | viability, T/C [13]: 85.4% | viability, T/C [14]: 94.3% | viability, T/C [15]: 69.9% | viability, T/C [16]: 37.2% | viability, T/C [17]: 22% | viability, T/C [18]: 13.3% | viability, T/C [19]: 84.4% | viability, T/C [20]: 96.7% | viability, T/C [21]: 52.9% | viability, T/C [22]: 30.7% | viability, T/C [23]: 24.4% | viability, T/C [24]: 17.7% | viability, T/C [25]: 86.4% | viability, T/C [26]: 70.5% | viability, T/C [27]: 68.6% | viability, T/C [28]: 37.1% | viability, T/C [29]: 27.4% | viability, T/C [30]: 19.6% | viability, T/C [31]: 89.2% | viability, T/C [32]: 77.5% | viability, T/C [33]: 53.3% | viability, T/C [34]: 37.6% | viability, T/C [35]: 23.6% | viability, T/C [36]: 18.2%

COc1ccc([C@@H](O)c2cc(-c3ncnc4cc(N5CCOCC5)ccc34)c(F)cc2Cl)nn1 + Cc1[nH]c2ccc(F)cc2c1-c1nc2c3cccnc3c3ncccc3c2[nH]1
IC50 (second compound 0.0316 µM): 9140 nM | IC50 (second compound 0.1 µM): > 10000 nM | IC50 (second compound 0.316 µM): 8510 nM | IC50 (second compound 1 µM): > 10000 nM | IC50 (second compound 3.16 µM): > 10000 nM | IC50 (second compound 10 µM): > 10000 nM | viability, T/C [1]: 107% | viability, T/C [2]: 112% | viability, T/C [3]: 92.9% | viability, T/C [4]: 90% | viability, T/C [5]: 95.8% | viability, T/C [6]: 45.7% | viability, T/C [7]: 123% | viability, T/C [8]: 115% | viability, T/C [9]: 114% | viability, T/C [10]: 94.9% | viability, T/C [11]: 115% | viability, T/C [12]: 58.1% | viability, T/C [13]: 106% | viability, T/C [14]: 116% | viability, T/C [15]: 94% | viability, T/C [16]: 100% | viability, T/C [17]: 86.8% | viability, T/C [18]: 43.4% | viability, T/C [19]: 114% | viability, T/C [20]: 108% | viability, T/C [21]: 72.2% | viability, T/C [22]: 88.6% | viability, T/C [23]: 97.1% | viability, T/C [24]: 68.2% | viability, T/C [25]: 101% | viability, T/C [26]: 101% | viability, T/C [27]: 93.9% | viability, T/C [28]: 103% | viability, T/C [29]: 88.9% | viability, T/C [30]: 66.1% | viability, T/C [31]: 84.6% | viability, T/C [32]: 88.6% | viability, T/C [33]: 109% | viability, T/C [34]: 90.8% | viability, T/C [35]: 108% | viability, T/C [36]: 61.6%
